From patent US11059778B2, “Cannabinoid receptor CB2 ligand 4-(aminomethyl)-N, N-dialkylanilines” (UNIVERSITY OF PITTSBURGH—OF THE COMMONWEALTH SYSTEM OF …, priority 2015, dated 2021)

Experiments:
[1] = target: T1, CHO cells expressing human CB2 receptors (Homo sapiens, UniProt P34972); assay: cell-based LANCE cAMP assay; details: forskolin-stimulated, RO-20-1724 present, FIG. 4
T1 construct: expressed in transfected cells; host or cells: CHO cells, stably transfected
Protocol: FIG. 4 relates to cAMP Assay Results. LANCE signal of CB2 ligands. Stably transfected CHO cells expressing human CB2 receptors were utilized to carry out the LANCE cAMP assay. […] Data is mean±SEM of all experiments of two or more performed in triplicate.
(§1) The antibodies are labeled with Alexa Fluor dye that is sensitive to energy emissions. Briefly, the cell-based LANCE cAMP assays were performed on 384-well ProxiPlates using CHO cells stably expressing the CB2 receptors at density of 2×10^3 cells per well in 5 μL of RPMI-1640 medium (Gibco Laboratories, Grand Island, N.Y.) containing 1% dialyzed FBS, 25 mM HEPES, […], and 200 μg/ml of […]. After incubation overnight, 2.5 μL of cAMP antibody and RO20-1724 (a phosphodiesterase inhibitor) in stimulation buffer (DPBS 1×, containing 0.1% BSA) was added to each well, followed by the addition of 2.5 μL of the compound plus the forskolin complex (an adenyl cyclase activator). After incubation at room temperature for 45 minutes, 10 μL of detection buffer was added into each well. The plate was then incubated at room temperature for 1 hour. The plate was then measured in a Synergy H1 hybrid reader (BioTek) with excitation at 340 nm and emission at 665 nm. The results represent at least two independent experiments each in triplicates. EC50 values were determined by nonlinear regression dose-response curve (GraphPad Prism 5).
as §1, with “Cyclic AMP levels were measured by performing the cell-based LANCE cAMP-384 kit assay (PerkinElmer) as previously described 13-14. The assay is based on the competition between the europium-labeled cAMP tracer complex and sample cAMP for binding sites on cAMP-specific antibodies. The antibodies” for “The antibodies”
The LANCE cAMP assay was carried out to measure the functional activities of our synthesized CB2 selective ligands as previously described 14. Briefly, the assay was performed on 384-well plates using CHO cells stably expressing CB2 receptors in the presence of phosphodiesterase inhibitor, RO-20-1724 and adenyl cyclase activator, forskolin.

human CB1 receptors = target: T2, human CB1 receptors (Homo sapiens, UniProt P21554); assay: [3H]CP-55,940 radioligand competition binding assay, CB1; details: CHO cell membranes, [3H]CP-55,940 displacement
T2 construct: expressed in transfected cells
Protocol: (§2) Binding assay. The bioassay is carried out using the Perkin Elmer 96-well Top Counter. This bioassay is also known as a competition binding assay and the biological evaluation is to determine the CB receptor binding affinity (Ki) of the screened ligands by displacing [^3H]-CP-55940 (or other radioligands). The brief procedure is given below.
(§3) Perkin Elmer 96-well TopCounter is used at PMLSC and in our laboratory to determine the CB receptor binding affinity (Ki) of the in-silico screened ligands by displacing [^3H]-CP-55,940 (or other radioligands). In competition binding experiments, the tested compound dilutions are carried out in triplicate in TME buffer (25 mM Tris, 5 mM MgCl2, 1 mM EDTA) containing 0.1% (w/v) fatty acid free bovine serum albumin (BSA), pH 7.4. Various concentrations of the tested compound are added in the same volume to 0.5 nM [^3H]CP-55,940. TME buffer and cell membrane preparations expressing CB receptors (2.5 μg per well) are added to a final volume of 200 μL. For the saturation binding experiments, varying concentrations of [^3H]CP-55,940 (0.05-1.5 nM) with or without 2 μM of unlabeled ligands (CP-55,940 or WIN-55,212-2) are incubated with the receptor membrane preparations to determine Kd and nonspecific binding. After the binding suspensions are incubated at 30° C. for 1 hr, the reaction is terminated by rapid filtration through microfiltration plates coated with 0.5% polyethylenimine (Unifilter GF/B filterplate, PerkinElmer) followed by 5 washes with ice cold TME buffer containing 0.5% BSA on a Packard Filtermate Harvester (PerkinElmer). The plates are then dried overnight and 30 μl MicroScint 0 scintillation cocktail are added to each well of the dried filter plates. Then the bound radioactivity is counted using a Perkin Elmer 96-well TopCounter. The Ki is calculated by using nonlinear regression analysis (Prism 5; GraphPad Software Inc., San Diego, Calif.), with the Kd values for [^3H]CP-55,940 determined from saturation binding experiments. This assay is used for determining binding affinity parameters (Ki) of ligand-receptor interactions for the CB receptor.
(§4) The affinities of the synthesized ligands were determined in radioligand binding studies at human CB1 and CB2 receptors using [3H](—)-cis-3-[2-hydroxy-4-(1,1 dimethylheptyl)phenyl]-trans-4-(3-hydroxypropyl) cyclohexanol (CP55,940) as a CB receptor radioligand. As a source for human CB1 and CB2 receptors, membrane preparations of Chinese hamster ovary (CHO) cells stably expressing the respective receptor subtype were utilized (50 μg of protein/vial). CB2 selective ligand SR144528 (CB2 inverse agonist) and CB1 ligand SR141716 (CB1 inverse agonist) were used as positive controls, respectively, along with the tested compounds in bioassays experiments. Only compounds with high CB2 receptor binding potency was chosen to carry out the CB1 binding assay. CB ligand competition binding assay was carried out as described previously in Gertsch, J., et al., Beta-caryophyllene is a dietary cannabinoid. Proc Natl Acad Sci USA 2008, 105 (26), 9099-104. Briefly, non-radioactive (or cold) ligands (synthesized derivatives and reference ligands) were diluted in a binding buffer (50 mM Tris-HCl (pH 7.4), 5 mM MgC12, 2.5 mM EGTA, and 0.1% (w/v) fatty acid free BSA), supplemented with 10% dimethyl sulfoxide and 0.4% methyl cellulose. Each assay plate well contained a total of 200 μL of reaction mixture composed of 5 μg of CB1 (or 2.5 μg CB2) membrane protein, labeled [3H]-CP-55,940 ligand at a final concentration of 2.5 nM, and the unlabeled ligand at its varying dilutions as stated above. Plates were incubated at 30° C. for 1 hour with gentle shaking.
(§5) The reaction was terminated by rapid filtration through Unifilter GF/B filter plates using a Unifilter Cell Harvester (PerkinElmer). After the plate was allowed to dry overnight, 30 μL MicroScint-0 cocktail (PerkinElmer) was added to each well, and the radioactivity was counted using a PerkinElmer TopCounter. […]

human CB2 receptors = target: T3, human CB2 receptors (Homo sapiens, UniProt P34972); assay: [3H]CP-55,940 radioligand competition binding assay, CB2; details: for Ki: CHO cell membranes, [3H]CP-55,940 displacement
T3 construct: expressed in transfected cells
Protocol: as §2, §3, §4, §5

T3 sequence (P34972 whole entry): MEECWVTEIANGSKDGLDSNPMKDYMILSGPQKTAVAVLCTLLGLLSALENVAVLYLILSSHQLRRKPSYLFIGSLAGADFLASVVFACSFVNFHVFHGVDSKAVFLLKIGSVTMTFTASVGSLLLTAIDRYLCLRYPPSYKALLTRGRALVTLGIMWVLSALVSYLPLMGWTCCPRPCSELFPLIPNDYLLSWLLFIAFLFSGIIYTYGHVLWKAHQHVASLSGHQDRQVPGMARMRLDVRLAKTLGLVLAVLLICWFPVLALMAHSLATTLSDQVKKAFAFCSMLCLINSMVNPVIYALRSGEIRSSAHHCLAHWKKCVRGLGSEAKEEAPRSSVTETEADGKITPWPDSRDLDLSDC
T2 sequence (P21554 whole entry): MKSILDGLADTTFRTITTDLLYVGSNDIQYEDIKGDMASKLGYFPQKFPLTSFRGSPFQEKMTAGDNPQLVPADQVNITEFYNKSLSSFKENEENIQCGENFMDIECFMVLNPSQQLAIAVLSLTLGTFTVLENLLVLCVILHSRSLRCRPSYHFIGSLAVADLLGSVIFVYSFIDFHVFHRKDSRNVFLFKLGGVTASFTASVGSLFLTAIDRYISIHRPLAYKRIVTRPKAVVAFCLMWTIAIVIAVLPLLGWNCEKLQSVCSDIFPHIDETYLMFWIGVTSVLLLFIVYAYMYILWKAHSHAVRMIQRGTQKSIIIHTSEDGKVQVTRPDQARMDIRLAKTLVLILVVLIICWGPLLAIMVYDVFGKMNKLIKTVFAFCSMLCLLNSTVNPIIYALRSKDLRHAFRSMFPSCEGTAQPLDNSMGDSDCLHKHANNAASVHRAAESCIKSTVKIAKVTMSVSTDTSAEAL
T1 sequence (P34972 whole entry): as the sequence (P34972 whole entry) above

Molecule	CB2 functional activity (LANCE cAMP signal) [1]	Ki (human CB1 receptors)	SI: selectivity index for CB2, calculated as Ki(CB1)/Ki(CB2) ratio (human CB2 receptors)	Ki (human CB2 receptors)
CCCCCCC(C)(C)c1ccc([C@@H]2C[C@H](O)CC[C@H]2CCCO)c(O)c1 [CP55940, (—)-cis-3-[2-hydroxy-4-(1,1 dimethylheptyl)phenyl]-trans-4-(3-hydroxypropyl) cyclohexanol, reference compound]	inhibit cAMP production	–	–	–
CCN(CC)c1ccc(CN(Cc2ccc3c(c2)OCO3)S(=O)(=O)c2ccc(C=O)cc2)cc1 [Compound 30, N-(benzo[d][1,3]dioxol-5-ylmethyl)-N-(4-(diethylamino)benzyl)-4-formylbenzenesulfonamide]	–	2740 nM	1	1870 nM
CCN(CC)c1ccc(CN(Cc2ccc3c(c2)OCO3)C(=O)c2cccs2)cc1 [Compound 32, N-(benzo[d][1,3]dioxol-5-ylmethyl)-N-(4-(diethylamino)benzyl)thiophene-2-carboxamide]	–	727 nM	2	574 nM
CCCCCN(Cc1ccc(N(CC)CC)cc1)S(=O)(=O)/C=C/c1ccccc1 [Compound 37, (E)-N-(4-(diethylamino)benzyl)-N-pentyl-2-phenylethene-1-sulfonamide]	–	5240 nM	10	515 nM
CCCCCN(Cc1ccc(N(CC)CC)cc1)S(=O)(=O)c1ccc(C=O)cc1 [Compound 38, N-(4-(diethylamino)benzyl)-4-formyl-N-pentylbenzenesulfonamide]	–	1790 nM	3	657 nM
CCCCCN(Cc1ccc(N(CC)CC)cc1)C(=O)c1cnc2ccccc2n1 [Compound 39, N-(4-(diethylamino)benzyl)-N-pentylquinoxaline-2-carboxamide]	–	1860 nM	1	1850 nM
CCCCCN(Cc1ccc(N(CC)CC)cc1)C(=O)c1cccs1 [Compound 40, N-(4-(diethylamino)benzyl)-N-pentylthiophene-2-carboxamide]	–	2440 nM	7	362 nM
SR-144,528 [reference compound]	inverse agonists	–	–	–
